Data as given in patent publication US4661495A, “Arphamenine-related compounds useful for potentiating the immune response in a living animal” (Zaidan Hojin Biseibutsu Kagaku Kenkyu Kai, priority 1984, dated 1987).

Columns and labels:
[1] = test system: immune response; settings: earlier publications/filings; cited from earlier work
[2] = test system: tumor; settings: earlier filings; cited from earlier work
[3] = test system: D.T.H. response with sheep red blood cells; assay: effect on cell-mediated or cellular immunity: Delayed Type Hypersensitivity (D.T.H.) with sheep red blood cells; type: in vivo, CDF1-mouse; settings: oral, 24 hours after challenge, * P < 0.05
Experimental: (2) The effect on cell-mediated or cellular immunity:
The effect of the new arphamenine-related compounds on cell-mediated or cellular immunity was evaluated by measuring Delayed Type Hypersensitivity (D.T.H.) using mice which received sheep red blood cell inoculated as antigen into the footpad of mice for immunization (see P. H. Lagrange, G. B. Mackaness and T. E. Miller: "J. Exp. Med.", 139, 1529-1539 (1974)).
A suspension of 10^8 sheep red blood cells (SRBC) in 0.05 ml of physiological saline was subcutaneously injected into one footpad of each CDF1 -mouse (female, 8 weeks-aged, 5 mice in each group) for immunization. Simultaneously, the mouse under test was given orally the test compound at a dosage of 5 mg/Kg, 0.5 mg/Kg or 0.05 mg/Kg as a solution of the test compound which was prepared by dissolving the test compound in physiological saline and then filtering the resulting solution by a millipore filter. On 4 days after the administration of the test compound, 10^8 sheep red blood cells were subcutaneously injected into another footpad of each test mouse for secondary challenge of the D.T.H. response. 24 Hours after the challenge, the thickness of the footpads was measured with calipers. Concurrently, the thickness of footpad of control mice which had received the injection of SRBC and physiological saline without the administration of the test compound was also measured in each mouse.
The effect of the test compound on the DTH response was evaluated by a percentage of increase in footpad thickness as calculated according to the following equation: [formula]

[4] = test system: ICR-strain mice; assay: Toxicity after intraperitoneal administration; type: in vivo; settings: 100 mg/Kg intraperitoneally, ICR-strain mice (male, 5 weeks-aged)
[5] = target: T1, carboxypeptidase A (Bos taurus, UniProt P00730); assay: inhibitory activity of the compounds to carboxypeptidase A; type: biochemical, bovine; settings: hippuryl-L-phenylalanine substrate, pH 7.5, 37° C., 30 minutes; read-out: IC50 (50% Inhibition Concentration) (converted)
T1 construct: purchased Sigma Co. Type 1; host or cells: bovine pancreas
T1 sequence (P00730 111-417 limits assumed): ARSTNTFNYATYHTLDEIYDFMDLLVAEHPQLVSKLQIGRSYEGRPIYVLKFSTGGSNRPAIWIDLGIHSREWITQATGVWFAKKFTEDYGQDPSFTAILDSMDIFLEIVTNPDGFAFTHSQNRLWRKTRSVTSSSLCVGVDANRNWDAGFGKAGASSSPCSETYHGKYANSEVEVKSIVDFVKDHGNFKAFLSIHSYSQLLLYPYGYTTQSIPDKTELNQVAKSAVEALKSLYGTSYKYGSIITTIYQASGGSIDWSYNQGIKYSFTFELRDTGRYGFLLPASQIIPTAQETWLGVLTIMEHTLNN
Experimental: (1) Method of testing the inhibitory activity of the compounds to carboxypeptidase A: The carboxypeptidase A-inhibitory activity was determined according to a modification of the method of Hayakari et al. (M. Hayakari et al., "Analytical Biochemistry" 84, 361-369, 1978). Thus, a mixture of 0.05 ml of a solution of 10 mM hippuryl-L-phenylalanine (as substrate), 0.25 ml of 0.05 M Tris-hydrochloride buffer (pH 7.5) containing 0.9 M NaCl and 0.15 ml of a solution containing a test compound as produced in Example 1, 2, 3 or 4 shown hereinafter was heated at 37° C. for 3 minutes. To said mixture was then added 0.05 ml of a carboxypeptidase A (Type 1, as extracted from bovine pancreas, a product of Sigma Co.), and the enzymatic reaction was effected at 37° C. for 30 minutes. The reaction solution was admixed with 0.03 ml of aqueous 1N sodium hydroxide to stop the reaction. After allowing to stand at ambient temperature for 15 minutes, the reaction solution was admixed with 2 ml of 0.06 M phosphate buffer (pH 7.2) and with 2 ml of a solution of 1% cyanuric chloride in ethylene glycol monomethylester. After the reaction solution was allowed to stand at ambient temperature for 5 minutes, absorbance (a) at 382 nm of the reaction solution was measured. For the blank test, the above procedure was repeated using said buffer solutions without the test compound, and the absorbance (b) was measured in the blank test. The percentage for inhibition to carboxypeptidase A was calculated according to the equation: [formula] On the basis of the values of percentages of inhibition measured by the above procedure, 50% Inhibition Concentration (IC50) was evaluated.

[6] = test system: carboxypeptidase; settings: J. Antibiot., 37, 682 (1984); cited from earlier work

Molecule | immunopotentiating activity [1] | antitumor activity [2] | Percentage of increase in footpad thickness ([3]; 0.05 mg/Kg) | Percentage of increase in footpad thickness ([3]; 0.5 mg/Kg) | Percentage of increase in footpad thickness ([3]; 5 mg/Kg) | death [4] | IC50 [5] | carboxypeptidase-inhibitory activity [6]
N=C(N)NCCCC(N)C(=O)CC(Cc1ccccc1)C(=O)O (centres unmarked) [arphamenine A] | immunopotentiating activity | antitumor activity |  |  |  |  |  | 
Cc1cc(C)nc(NCCCC(NC(=O)OCc2ccccc2)C(=O)CC(Cc2ccc(O)cc2)C(=O)O)n1 (centres unmarked) [Example 4 (b), 5-benzyloxycarbonylamino-8-[(4,6-dimethylpyrimidin-2-yl)amino]-2-(4'-hydroxyphenylmethyl)-4-oxo-octanoic acid] |  |  | 110 Percentage | 123 Percentage | 145 Percentage | no death | 655 nM | 
N=C(N)NCCCC(N)C(=O)CC(Cc1ccc(O)cc1)C(=O)O (centres unmarked) [arphamenine B] | immunopotentiating activity | antitumor activity |  |  |  |  |  | 
Cc1cc(C)nc(NCCCC(NC(=O)c2ccccc2)C(=O)CC(Cc2ccccc2)C(=O)O)n1 (centres unmarked) [Example 1 (b), 5-benzoylamino-8-[(4,6-dimethylpyrimidin-2-yl)amino]-4-oxo-2-phenylmethyloctanoic acid] |  |  | 107 Percentage | 121 Percentage | 128 Percentage | no death | 40.9 nM | 
Cc1cc(C)nc(NCCCC(NC(=O)OCc2ccccc2)C(=O)CC(Cc2ccccc2)C(=O)O)n1 (centres unmarked) [Example 3 (b), 5-benzyloxycarbonylamino-8-[(4,6-dimethylpyrimidin-2-yl)amino]-4-oxo-2-phenylmethyloctanoic acid] |  |  | 110 Percentage | 120 Percentage | 136 Percentage | no death | 123 nM | 
Cc1cc(C)nc(NCCCC(NC(=O)c2ccccc2)C(=O)CC(Cc2ccc(O)cc2)C(=O)O)n1 (centres unmarked) [Example 2 (b), 5-benzoylamino-8-[(4,6-dimethylpyrimidin-2-yl)amino]-2-(4'-hydroxyphenylmethyl)-4-oxo-octanoic acid] |  |  | 113 Percentage | 130 Percentage | 144 Percentage | no death | 17.4 nM | 
benzylmalic acid | shows an immunopotentiating activity |  |  |  |  |  |  | having a carboxypeptidase-inhibitory activity
